Results as given in PMC4549708, “Inhibition of neuraminidase by Ganoderma triterpenoids and implications for neuraminidase inhibitor design” (Scientific Reports, 2015).

What was measured:
NA (H1N1, N295S) = assay type: biochemical, Influenza A virus A/California/04/2009(H1N1)(N295S); settings: 200 µM
NA (H3N2, E119V) = assay type: biochemical, Influenza A virus A/Babol/36/2005(H3N2)(E119V); settings: 200 µM
H1N1 (A/HA-58pdm-TR) = assay: microbe, parasite or virus in culture; assay type: cell-based, oseltamivir-resistant strain; settings: Influenza A virus, H1N1, MDCK

Molecule	Inhibition rate (%) NA(H1N1, N295S) (NA (H1N1, N295S))	Inhibition rate (%) NA(H3N2, E119V) (NA (H3N2, E119V))	IC50 (H1N1 (A/HA-58pdm-TR))
C/C(=C/CC[C@@H](C)[C@H]1CC[C@@]2(C)C3=CC[C@H]4C(C)(C)C(=O)CC[C@]4(C)C3=CC[C@]12C)C(=O)O [Compound 4, Ganoderic acid Sz]	29.3 ± 5.1%	22.5 ± 0.3%	
C[C@H](CC(=O)C[C@@H](C)[C@H]1CC(=O)[C@@]2(C)C3=C(C(=O)C[C@]12C)[C@@]1(C)CCC(=O)C(C)(C)[C@@H]1C[C@@H]3O)C(=O)O [Compound 19, Ganoderic acid C1]	14.7 ± 3.9%	32.0 ± 3.4%	
CC(CC(=O)C[C@@H](C)[C@H]1CC(=O)[C@@]2(C)C3=C(C(=O)[C@@H](O)[C@]12C)[C@@]1(C)CC[C@H](O)C(C)(C)[C@@H]1CC3=O)C(=O)O (stereo partly shown) [Compound 18, Ganoderic acid C6]	17.6 ± 3.5%	20.7 ± 0.5%	
C/C(=C/CC[C@@H](C)[C@H]1CC[C@@]2(C)C3=CC[C@H]4C(C)(C)C(=O)CC[C@]4(C)C3=CC[C@]12C)C(=O)O [Compound 5, Ganoderic acid S]	34.1 ± 2.2%	44.9 ± 3.2%	
CC(=O)O[C@@H]1C(=O)C2=C([C@@H](O)C[C@H]3C(C)(C)[C@@H](O)CC[C@]23C)[C@]2(C)C(=O)C[C@H]([C@H](C)CC(=O)CC(C)C(=O)O)[C@@]12C (stereo partly shown) [Compound 11, Ganoderic acid K]	14.2 ± 2.9%	33.5 ± 2.4%	
C[C@H](CC[C@H](O)[C@](C)(O)CO)[C@H]1CC[C@@]2(C)C3=CC[C@H]4C(C)(C)C(=O)CC[C@]4(C)C3=CC[C@]12C [Compound 29, Ganodermanontriol]	7.9 ± 3.2%	12.2 ± 3.4%	
C[C@H](CCC=C(CO)CO)[C@H]1CC[C@@]2(C)C3=CC[C@H]4C(C)(C)C(=O)CC[C@]4(C)C3=CC[C@]12C [Compound 27, Ganoderiol F]	9.5 ± 4.5%	16.8 ± 1.2%	
CC(=O)O[C@H]1C[C@H]([C@H](C)CC/C=C(\C)C(=O)O)[C@@]2(C)CC=C3C(=CC[C@H]4C(C)(C)C(=O)CC[C@]34C)[C@]12C [Compound 1, Ganoderic acid T-Q]		55.4 ± 4.1%	
C[C@H](CC[C@H](O)C(C)(C)O)[C@H]1CC[C@@]2(C)C3=CC[C@H]4C(C)(C)C(=O)CC[C@]4(C)C3=CC[C@]12C [Compound 28, Ganodermanondiol]	19.0 ± 4.2%	34.2 ± 0.9%	
CC(CC(=O)C[C@@H](C)[C@H]1CC(=O)[C@@]2(C)C3=C(C(=O)C[C@]12C)[C@@]1(C)CC[C@H](O)C(C)(C)[C@@H]1CC3=O)C(=O)O (stereo partly shown) [Compound 10, Ganoderic acid AM1]	9.3 ± 1.6%	31.3 ± 3.2%	
C/C(=C\CC[C@@H](C)[C@H]1CC[C@@]2(C)C3=C(CC[C@]12C)[C@@]1(C)CCC(=O)C(C)(C)[C@@H]1CC3=O)C(=O)O [Compound 20, Ganoderic acid DM]	19.0 ± 2.4%	28.8 ± 0.5%	
C/C(=C\C(=O)CC(C)C(=O)O)[C@H]1C[C@H](O)[C@@]2(C)C3=C(C(=O)C[C@]12C)[C@@]1(C)CCC(=O)C(C)(C)[C@@H]1C[C@@H]3O (stereo partly shown) [Compound 8, Ganoderenic acid A]	12.4 ± 1.8%	29.1 ± 2.3%	
CC(=O)O[C@H]1C[C@H]([C@H](C)CC/C=C(\C)C(=O)O)[C@@]2(C)CC=C3C(=CC[C@H]4C(C)(C)[C@@H](O)CC[C@]34C)[C@]12C [Compound 3, Ganoderic acid T-N]	27.5 ± 1.4%	43.6 ± 1.2%	
CC(=O)O[C@@H]1C(=O)C2=C(C(=O)C[C@H]3C(C)(C)[C@@H](O)CC[C@]23C)[C@]2(C)C(=O)C[C@H]([C@H](C)CC(=O)CC(C)C(=O)O)[C@@]12C (stereo partly shown) [Compound 13, Ganoderic acid H]	16.9 ± 2.4%	27.9 ± 1.5%	
C/C(=C\C(=O)CC(C)C(=O)O)[C@H]1CC(=O)[C@@]2(C)C3=C(C(=O)C[C@]12C)[C@@]1(C)CC[C@H](O)C(C)(C)[C@@H]1CC3=O (stereo partly shown) [Compound 12, Ganoderenic acid H]	12.8 ± 5.1%	38.6 ± 2.3%	
C/C(=C\[C@@H](O)C[C@@H](C)[C@H]1CC(=O)[C@@]2(C)C3=C(C(=O)C[C@]12C)[C@@]1(C)CCC(=O)C(C)(C)[C@@H]1C[C@@H]3O)C(=O)O [Compound 23, Ganoderic acid LM2]	15.4 ± 0.6%	12.9 ± 1.0%	

Molecule	Inhibition rate (%) NA(H1N1, N295S) (NA (H1N1, N295S))	Inhibition rate (%) NA(H3N2, E119V) (NA (H3N2, E119V))	IC50 (H1N1 (A/HA-58pdm-TR))
C/C(C=O)=C\CC[C@@H](C)[C@H]1CC[C@@]2(C)C3=CC[C@H]4C(C)(C)[C@@H](O)CC[C@]4(C)C3=CC[C@]12C [Compound 30, Lucialdehyde A]	5.8 ± 2.4%	25.9 ± 8.1%	
CC(CC(=O)C[C@@H](C)[C@H]1C[C@H](O)[C@@]2(C)C3=C(C(=O)C[C@]12C)[C@@]1(C)CCC(=O)C(C)(C)[C@@H]1CC3)C(=O)O (stereo partly shown) [Compound 21, Ganolucidic acid A]	21.0 ± 4.2%	22.9 ± 3.8%	
C[C@H](CC(=O)C[C@@H](C)[C@H]1C[C@H](O)[C@@]2(C)C3=C(C(=O)C[C@]12C)[C@@]1(C)CC[C@H](O)C(C)(C)[C@@H]1C[C@@H]3O)C(=O)O [Compound 9, Ganoderic acid C2]	13.7 ± 2.4%	45.4 ± 1.1%	
C/C(=C\CC[C@@H](C)[C@H]1CC[C@@]2(C)C3=CC[C@H]4C(C)(C)[C@@H](O)CC[C@]4(C)C3=CC[C@]12C)CO [Compound 26, Ganoderol B]	19.9 ± 1.1%	19.1 ± 6.1%	
C/C(=C\C(=O)CC(C)C(=O)O)C1CC(O)C2(C)C3=C(C(=O)CC12C)C1(C)CCC(O)C(C)(C)C1CC3O (stereo not shown) [Compound 16, Ganoderenic acid C]	13.2 ± 2.2%	37.5 ± 2.4%	
C[C@H](CC(=O)C[C@@H](C)[C@H]1C[C@H](O)[C@@]2(C)C3=C(C(=O)C[C@]12C)[C@@]1(C)CCC(=O)C(C)(C)[C@@H]1C[C@@H]3O)C(=O)O [Compound 7, Ganoderic acid A]	15.3 ± 1.8%	32.1 ± 2.7%	
CC(CC(=O)C[C@@H](C)[C@H]1CC(=O)[C@@]2(C)C3=C(C(=O)C[C@]12C)[C@@]1(C)CC[C@H](O)C(C)(C)[C@@H]1C[C@@H]3O)C(=O)O (stereo partly shown) [Compound 14, Ganoderic acid B]	12.8 ± 1.4%	38.7 ± 1.6%	
C/C(=C\[C@@H](O)C[C@@H](C)[C@H]1CC(=O)[C@@]2(C)C3=C(C(=O)C[C@]12C)[C@@]1(C)CC[C@H](O)C(C)(C)[C@@H]1CC3=O)C(=O)O [Compound 22, Ganoderic acid Zeta]	25.5 ± 4.9%	18.7 ± 4.5%	
C/C(=C\C(=O)CC(C)C(=O)O)[C@H]1CC(=O)[C@@]2(C)C3=C(C(=O)C[C@]12C)[C@@]1(C)CCC(=O)C(C)(C)[C@@H]1CC3=O (stereo partly shown) [Compound 15, Ganoderenic acid F]	24.4 ± 4.4%	24.2 ± 3.9%	
Ganoderenic acid D [Compound 17]	13.8 ± 3.1%	32.2 ± 3.4%	
CC(=O)O[C@@H]1C(=O)C2=C(C(=O)C[C@H]3C(C)(C)C(=O)CC[C@]23C)[C@]2(C)C(=O)C[C@H]([C@H](C)CC(=O)CC(C)C(=O)O)[C@@]12C (stereo partly shown) [Compound 24, Ganoderic acid F]	17.6 ± 2.0%	19.9 ± 2.6%	
C/C(=C\CC[C@@H](C)[C@H]1CC[C@@]2(C)C3=CC[C@H]4C(C)(C)C(=O)CC[C@]4(C)C3=CC[C@]12C)CO [Compound 25, Ganoderol A]	22.6 ± 1.8%	18.2 ± 2.7%	
C/C(=C\CC[C@@H](C)[C@H]1C[C@H](O)[C@@]2(C)C3=CC[C@H]4C(C)(C)C(=O)CC[C@]4(C)C3=CC[C@]12C)C(=O)O [Compound 2, Ganoderic acid TR]		59.2 ± 1.9%	245 µM
C/C(=C\CC[C@@H](C)[C@H]1CC[C@@]2(C)C3=CC[C@H]4C(C)(C)[C@@H](O)CC[C@]4(C)C3=CC[C@]12C)C(=O)O [Compound 6, Ganoderic acid Y]	16.9 ± 2.8%	23.2 ± 3.4%	
C/C(C=O)=C\CC[C@@H](C)[C@H]1CC[C@@]2(C)C3=C(CC[C@]12C)[C@@]1(C)CCC(=O)C(C)(C)[C@@H]1CC3=O [Compound 31, Lucialdehyde B]	11.2 ± 1.3%	43.3 ± 1.0%	
